Reference: patent US20240270762A1, “PENICILLIN-BINDING PROTEIN INHIBITORS” (priority 2021, published 2024)
In brackets after ≈: the same amount, converted by molar mass. Read-outs that look alike come from different tables or passages of the source.

Key:
[1] = biological target: T1, PBP3 from Acinetobacter baumannii (ATCC 19606) (Acinetobacter baumannii, UniProt A0ABX6CK25); assay: Bocillin-FL fluorescence polarization competition binding, A. baumannii PBP3; details: fluorescence polarization competition binding assay using Bocillin-FL; read-out: A. baumannii PBP3 Potency
T1 sequence (A0ABX6CK25 64-610): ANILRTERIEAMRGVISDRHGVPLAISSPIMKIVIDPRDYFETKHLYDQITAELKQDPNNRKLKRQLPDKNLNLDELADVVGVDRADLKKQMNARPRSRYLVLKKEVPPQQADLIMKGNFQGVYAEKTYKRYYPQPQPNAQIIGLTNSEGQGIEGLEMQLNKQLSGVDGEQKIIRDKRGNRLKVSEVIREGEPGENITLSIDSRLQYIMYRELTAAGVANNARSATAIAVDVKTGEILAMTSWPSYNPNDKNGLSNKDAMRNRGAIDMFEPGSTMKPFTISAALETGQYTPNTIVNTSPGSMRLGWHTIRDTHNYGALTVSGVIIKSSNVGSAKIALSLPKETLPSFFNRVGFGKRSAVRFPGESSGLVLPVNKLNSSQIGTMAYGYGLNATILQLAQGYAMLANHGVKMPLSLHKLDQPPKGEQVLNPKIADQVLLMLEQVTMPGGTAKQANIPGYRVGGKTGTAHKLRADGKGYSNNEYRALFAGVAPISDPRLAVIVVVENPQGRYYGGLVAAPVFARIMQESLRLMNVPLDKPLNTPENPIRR
How it was run: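 Purified PBPs pre-incubated with inhibitor (E. coli PBP3 1.5 μM, 30 min; P. aeruginosa PBP3 0.75 μM, A. baumannii PBP1a 1 μM and PBP3 0.2 μM, 15 min), then Bocillin-FL 0.1 μM (0.05 μM for PBP1a) added; FP read up to 60 min. EC50 = concentration halving bound Bocillin-FL.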

N. gonorrhoeae CDC-0197 = assay: Liquid broth MIC in Fastidious broth; details: Neisseria gonorrhoeae
A. baumannii CDC-0045 = assay: microbe, parasite or virus in culture; type: cell-based; details: Acinetobacter baumannii, CDC0045, read-out: MIC, A. baumannii CDC-0045
[2] = tested on: B. thailandensis ATCC 700388; assay: microbe, parasite or virus in culture; type: cell-based; details: Burkholderia thailandensis, ATCC700388, read-out: Minimum inhibitory concentration (MIC), B. thailandensis ATCC 700388
P. aeruginosa ATCC 35151 = assay: microbe, parasite or virus in culture; type: cell-based; details: Pseudomonas aeruginosa, ATCC35151, read-out: Minimum inhibitory concentration, P. aeruginosa ATCC 35151
N. gonorrhoeae WHO L = assay: Liquid broth MIC in Fastidious broth; details: Neisseria gonorrhoeae
N. gonorrhoeae WHO Q = assay: Liquid broth MIC in Fastidious broth; details: Neisseria gonorrhoeae
A. baumannii 1258916 = assay: microbe, parasite or virus in culture; type: cell-based, Acinetobacter baumannii; details: Acinetobacter baumannii, 1258916, read-out: MIC, A. baumannii 1258916
N. gonorrhoeae MS11 = assay: Liquid broth MIC in Fastidious broth; details: Neisseria gonorrhoeae
P. aeruginosa CDC-0095 = assay: microbe, parasite or virus in culture; type: cell-based; details: Pseudomonas aeruginosa, CDC0095, read-out: Minimum inhibitory concentration, P. aeruginosa CDC-0095
[3] = CDC0197, read-out: Minimum Inhibitory Concentration (MIC), N. gonorrhoeae CDC-0197
[4] = read-out: Minimum Inhibitory Concentration (MIC), N. gonorrhoeae WHO L
[5] = read-out: Minimum Inhibitory Concentration (MIC), N. gonorrhoeae WHO Q
[6] = MS11, read-out: Minimum Inhibitory Concentration (MIC), N. gonorrhoeae MS11
[7] = CDC0197, read-out: Minimum Inhibitory Concentration, CDC-0197
[8] = read-out: Minimum Inhibitory Concentration, WHO L
[9] = read-out: Minimum Inhibitory Concentration, WHO Q
[10] = MS11, read-out: Minimum Inhibitory Concentration, MS11

SMILES | IC50 [1] | MIC (N. gonorrhoeae CDC-0197; [3]) | MIC (A. baumannii CDC-0045) | MIC [2] | MIC (P. aeruginosa ATCC 35151) | MIC (N. gonorrhoeae WHO L; [4]) | MIC (N. gonorrhoeae WHO Q; [5]) | MIC (A. baumannii 1258916) | MIC (N. gonorrhoeae MS11; [6]) | MIC (P. aeruginosa CDC-0095) | MIC (N. gonorrhoeae CDC-0197; [7]) | MIC (N. gonorrhoeae WHO L; [8]) | MIC (N. gonorrhoeae WHO Q; [9]) | MIC (N. gonorrhoeae MS11; [10])
O=C(NCCN1CCN(C(=O)NC(C(=O)N[C@H]2Cc3ccc(F)c(C(=O)O)c3OB2O)c2cc(F)c(O)c(O)c2Cl)C1=O)c1cccc(O)c1 (stereo partly drawn) [Example 244, (3R)-3-(2-(2-chloro-5-fluoro-3,4-dihydroxyphenyl)-2-(3-(2-(3-hydroxybenzamido)ethyl)-2-oxoimidazolidine-1-carboxamido)acetamido)-7-fluoro-2-hydroxy-3,4-dihydro-2H-benzo[e][1,2]oxaborinine-8-carboxylic acid] | < 10 µM | > 64 µg/mL | 2 to 4 µg/mL (≈ 2.79 to 5.57 µM) | > 128 µg/mL | < 1 µg/mL | > 64 µg/mL | > 64 µg/mL | < 1 µg/mL | > 64 µg/mL | 32 to 64 µg/mL (≈ 44.6 to 89.2 µM) |  |  |  | 
O=C(NCCN1CCN(C(=O)NC(C(=O)N[C@H]2Cc3ccc(F)c(C(=O)O)c3OB2O)c2cc(F)c(O)c(O)c2Cl)C1=O)c1ccncc1 (stereo partly drawn) [Example 245, (3R)-3-(2-(2-chloro-5-fluoro-3,4-dihydroxyphenyl)-2-(3-(2-(isonicotinamido)ethyl)-2-oxoimidazolidine-1-carboxamido)acetamido)-7-fluoro-2-hydroxy-3,4-dihydro-2H-benzo[e][1,2]oxaborinine-8-carboxylic acid] | < 10 µM | > 64 µg/mL | < 1 µg/mL | 2 to 4 µg/mL (≈ 2.85 to 5.69 µM) | < 1 µg/mL | > 64 µg/mL | > 64 µg/mL | < 1 µg/mL | 16 to 32 µg/mL (≈ 22.8 to 45.5 µM) | 2 to 4 µg/mL (≈ 2.85 to 5.69 µM) |  |  |  | 
O=C(NCCN1CCN(C(=O)NC(C(=O)N[C@H]2Cc3ccc(F)c(C(=O)O)c3OB2O)c2cc(F)c(O)c(O)c2Cl)C1=O)c1cccnc1 (stereo partly drawn) [Example 246, (3R)-3-(2-(2-chloro-5-fluoro-3,4-dihydroxyphenyl)-2-(3-(2-(nicotinamido)ethyl)-2-oxoimidazolidine-1-carboxamido)acetamido)-7-fluoro-2-hydroxy-3,4-dihydro-2H-benzo[e][1,2]oxaborinine-8-carboxylic acid] | < 10 µM |  | < 1 µg/mL | 2 to 4 µg/mL (≈ 2.85 to 5.69 µM) | < 1 µg/mL |  |  | < 1 µg/mL |  | 2 to 4 µg/mL (≈ 2.85 to 5.69 µM) | > 64 µg/mL | > 64 µg/mL | > 64 µg/mL | 16 to 32 µg/mL (≈ 22.8 to 45.5 µM)
O=C(NCCN1CCN(C(=O)NC(C(=O)N[C@H]2Cc3ccc(F)c(C(=O)O)c3OB2O)c2cc(F)c(O)c(O)c2Cl)C1=O)c1nccs1 (stereo partly drawn) [Example 247, (3R)-3-(2-(2-chloro-5-fluoro-3,4-dihydroxyphenyl)-2-(2-oxo-3-(2-(thiazole-2-carboxamido)ethyl)imidazolidine-1-carboxamido)acetamido)-7-fluoro-2-hydroxy-3,4-dihydro-2H-benzo[e][1,2]oxaborinine-8-carboxylic acid] | < 10 µM |  | < 1 µg/mL | < 1 µg/mL | < 1 µg/mL |  |  | < 1 µg/mL |  | 2 to 4 µg/mL (≈ 2.82 to 5.64 µM) | > 64 µg/mL | > 64 µg/mL | 16 to 32 µg/mL (≈ 22.6 to 45.1 µM) | 16 to 32 µg/mL (≈ 22.6 to 45.1 µM)
O=C(O)c1c(F)ccc2c1OB(O)[C@@H](NC(=O)C(NC(=O)N1CCN(CCNC(=O)[C@@H]3CCCN3)C1=O)c1cc(F)c(O)c(O)c1Cl)C2 (stereo partly drawn) [Example 248, (3R)-3-(2-(2-chloro-5-fluoro-3,4-dihydroxyphenyl)-2-(2-oxo-3-(2-((S)-pyrrolidine-2-carboxamido)ethyl)imidazolidine-1-carboxamido)acetamido)-7-fluoro-2-hydroxy-3,4-dihydro-2H-benzo[e][1,2]oxaborinine-8-carboxylic acid] | < 10 µM |  | < 1 µg/mL | 2 to 4 µg/mL (≈ 2.88 to 5.76 µM) | < 1 µg/mL |  |  | < 1 µg/mL |  | 8 to 16 µg/mL (≈ 11.5 to 23 µM) | 16 to 32 µg/mL (≈ 23 to 46.1 µM) | > 64 µg/mL | 16 to 32 µg/mL (≈ 23 to 46.1 µM) | 16 to 32 µg/mL (≈ 23 to 46.1 µM)
